Experiments:
Assay type in all cases: cell-based
AU565 (Her2^high) cells [1] = assay: Flow cytometry uptake in mixed cell population, concentration series (Example 5); settings: 2 h, first set
Method: (§1) The media were replaced with serum free media containing indicated concentrations of protein listed below and incubated for 2 h. Cells were washed 3×PBS, trypsinized, fixed with 4% PFA, stained with Her2 Ab-APC for 0.5 hour, washed with PBS and then analyzed by flow cytometry with detection of GFP.
(§2) The tested proteins of the first and second sets of experiments were applied to the mixed cell population for two hours.
(§3) The above data were also plotted in FIGS. 13A-13H to show the median fluorescence value minus background fluorescence of untreated cells (background adjusted fluorescence) (Y-axis) as a function of concentration (X-axis) for each of the tested proteins in this Example. Cellular uptake of the proteins was measured by GFP fluorescence. Her2 expression level was measured by using a Her2 antibody conjugated with allophycocyanin (APC). Gating was applied to the flow cytometry data to identify Her2^1′ versus Her2^high populations. […] The Her2^low profiles (diamond) are indicative of the profile of charged GFP alone. The Her2^high profiles (square) are indicative of the profile of the charged GFP in combination with the target-binding region—C6.5 scFv. The data of sfGFP-C6.5 on the Her2^high cells reflects the profile of the target-binding region (C6.5) by itself.

[2] = tested on: MDA-MB-468 (Her2^Low) cells; assay: as above; settings: 2 h; for Median Fluorescence Values, MDA-MB-468 cells (Her2−) GFP-C6.5 / Median Fluorescence Values, MDA-MB-468 cells (Her2−) C6.5-GFP: first set; for Median Fluorescence Values, Her2− GFP-C6.5: second set
Method: as §1, §2, §3

AU565 (Her2^high) cells [3] = assay: Flow cytometry uptake in mixed cell population, time course (Example 6); settings: 0.1 μM
Method: (§4) The media were replaced with serum free media containing 0.1 μM of protein listed below and incubated for 10 minutes, 30 minutes or 4 hours. Cells were washed 3×PBS, trypsinized, stained with Her2 Antibody-APC for 0.5 hours, washed with PBS and then analyzed by flow cytometry with detection of GFP.

[4] = tested on: MDA-MB-468 (Her2^Low) cells; assay: as above; settings: 0.1 μM
Method: as §4

AU565 (Her2^high) cells [5] = assay: Flow cytometry detection of internalized GFP protein (Example 4); settings: 1 μM, 2 hours, serum free media
[6] = tested on: MDA-MB-468 (Her2^Low) cells; assay: as above; settings: 1 μM, 2 hours, serum free media
Method: These two types of cells express different levels of Her2 protein (FIG. 8). […] MDA-MB-468 cells express very low levels of Her2 (referred to as Her2^Low) while AU565 cells express high levels of Her2 (referred to as Her2^high).
The media were replaced with serum free media containing 1 μM of a protein listed below, and incubated for 2 hours. Cells were washed 3×PBS, trypsinized, fixed with 4% PFA, washed with PBS and then analyzed by flow cytometry with detection of GFP.
Results: Flow cytometry analysis is indicative of the amount of protein internalized into the cells. FIGS. 9A and 9B show the flow cytometry data obtained for different tested samples at various conditions. The median fluorescence values obtained from the flow cytometry peak minus the median fluorescence values of untreated cells (background fluorescence) are shown in FIGS. 10A and 10B. See also Table 7. The first column indicates identifies the GFP-component of the construct used for the particular sample treatment. The second and third columns represents fluorescence in MDA-MB-468 cells following treatment with each of the GFP proteins alone (second column; examples of use of CPMs alone) or with each of the GFP-C6.5 fusion proteins (third column; examples of fusion proteins comprising a target-binding region and a CPM region). The fourth and fifth column fluorescence in AU565 cells following treatment with each of the GFP proteins alone (fourth column; examples of use of CPMs alone) or with each of the GFP-C6.5 fusion proteins (fifth column; examples of fusion proteins comprising a target-binding region and a CPM region).

SKOV-3 cells (Her2^high) = assay: Cellular uptake by fluorescence microscopy; settings: 1 μM, 1 hour
Method: These images were taken to assess cellular uptake of these GFP-containing proteins by fluorescence microscopy. The images shown are an overlay of phase contrast and GFP fluorescence images.
In addition, SKOV-3 cells (Her2^high) were treated with 1 μM of proteins for 1 hour, and then images were taken to assess cellular uptake of GFP proteins by fluorescence microscopy (FIG. 11A).

Molecule: +15GFP-C6.5: fusion of +15GFP, (S4G)6 spacer, C6.5 scFv, His6
- Median Fluorescence Values, AUS65 cells (Her2+) GFP-C6.5 (AU565 (Her2^high) cells [1]; 0.03 uM): 37,663
- Median Fluorescence Values, AUS65 cells (Her2+) GFP-C6.5 (AU565 (Her2^high) cells [1]; 0.1 uM): 74,673
- Median Fluorescence Values, AUS65 cells (Her2+) GFP-C6.5 (AU565 (Her2^high) cells [1]; 0.3 uM): 128,374
- Median Fluorescence Values, AUS65 cells (Her2+) GFP-C6.5 (AU565 (Her2^high) cells [1]; 1 uM): 180,065
- Median Fluorescence Values, MDA-MB-468 cells (Her2−) GFP-C6.5 ([2]; 0.03 uM): 13,012
- Median Fluorescence Values, MDA-MB-468 cells (Her2−) GFP-C6.5 ([2]; 0.1 uM): 36,343
- Median Fluorescence Values, MDA-MB-468 cells (Her2−) GFP-C6.5 ([2]; 0.3 uM): 76,116
- Median Fluorescence Values, MDA-MB-468 cells (Her2−) GFP-C6.5 ([2]; 1 uM): 155,734
- cellular uptake (flow cytometry with detection of GFP), Her2+ GFP-C6.5 (AU565 (Her2^high) cells [3]; 10 min): 18,606
- cellular uptake (flow cytometry with detection of GFP), Her2+ GFP-C6.5 (AU565 (Her2^high) cells [3]; 30 min): 35,981
- cellular uptake (flow cytometry with detection of GFP), Her2+ GFP-C6.5 (AU565 (Her2^high) cells [3]; 4 h): 148,261
- cellular uptake (flow cytometry with detection of GFP), Her2− GFP-C6.5 ([4]; 10 min): 10,665
- cellular uptake (flow cytometry with detection of GFP), Her2− GFP-C6.5 ([4]; 30 min): 22,262
- cellular uptake (flow cytometry with detection of GFP), Her2− GFP-C6.5 ([4]; 4 h): 144,923
- median fluorescence values, AU565 (Her2^high) GFP-C6.5 (AU565 (Her2^high) cells [5]): 413,838
- median fluorescence values, MDA-MB-468 (Her2^Low) GFP-C6.5 [6]: 313,629

Molecule: C6.5-+15GFP: fusion of N-terminal C6.5 scFv, (S4G)6 spacer, +15GFP, His6
- cellular uptake by fluorescence microscopy (SKOV-3 cells (Her2^high)): internalized efficiently in the cells
- Median Fluorescence Values, AUS65 cells (Her2+) C6.5-GFP (AU565 (Her2^high) cells [1]; 0.03 uM): 75,821
- Median Fluorescence Values, AUS65 cells (Her2+) C6.5-GFP (AU565 (Her2^high) cells [1]; 0.1 uM): 162,337
- Median Fluorescence Values, AUS65 cells (Her2+) C6.5-GFP (AU565 (Her2^high) cells [1]; 0.3 uM): 305,944
- Median Fluorescence Values, AUS65 cells (Her2+) C6.5-GFP (AU565 (Her2^high) cells [1]; 1 uM): 822,351
- Median Fluorescence Values, MDA-MB-468 cells (Her2−) C6.5-GFP ([2]; 0.03 uM): 13,355
- Median Fluorescence Values, MDA-MB-468 cells (Her2−) C6.5-GFP ([2]; 0.1 uM): 36,070
- Median Fluorescence Values, MDA-MB-468 cells (Her2−) C6.5-GFP ([2]; 0.3 uM): 82,571
- Median Fluorescence Values, MDA-MB-468 cells (Her2−) C6.5-GFP ([2]; 1 uM): 306,260
- cellular uptake (flow cytometry with detection of GFP), Her2+ C6.5-GFP (AU565 (Her2^high) cells [3]; 10 min): 37,044
- cellular uptake (flow cytometry with detection of GFP), Her2+ C6.5-GFP (AU565 (Her2^high) cells [3]; 30 min): 61,007
- cellular uptake (flow cytometry with detection of GFP), Her2+ C6.5-GFP (AU565 (Her2^high) cells [3]; 4 h): 184,844
- cellular uptake (flow cytometry with detection of GFP), Her2− C6.5-GFP ([4]; 10 min): 13,517
- cellular uptake (flow cytometry with detection of GFP), Her2− C6.5-GFP ([4]; 30 min): 17,194
- cellular uptake (flow cytometry with detection of GFP), Her2− C6.5-GFP ([4]; 4 h): 96,599
- median fluorescence values, AU565 (Her2^high) GFP-C6.5 (AU565 (Her2^high) cells [5]): 2,170,916
- median fluorescence values, MDA-MB-468 (Her2^Low) GFP-C6.5 [6]: 767,627

Molecule: sfGFP-C6.5: fusion of superfolder GFP, (S4G)6 spacer, C6.5 anti-Her2 scFv, His6
- Median Fluorescence Values, Her2− GFP-C6.5 ([2]; 0.03 uM): 4,460
- Median Fluorescence Values, Her2− GFP-C6.5 ([2]; 0.1 uM): 4,824
- Median Fluorescence Values, Her2− GFP-C6.5 ([2]; 0.3 uM): 4,947
- cellular uptake (flow cytometry with detection of GFP), Her2− GFP-C6.5 ([4]; 10 min): 4,081
- cellular uptake (flow cytometry with detection of GFP), Her2− GFP-C6.5 ([4]; 30 min): 3,986
- cellular uptake (flow cytometry with detection of GFP), Her2− GFP-C6.5 ([4]; 4 h): 4,704
- median fluorescence values, MDA-MB-468 (Her2^Low) GFP-C6.5 [6]: 5,632

B1: +2GFP-C6.5: +2GFP fused to C6.5 scFv; variant a or b not stated (protein)
scFv: QVQLLQSGAELKKPGESLKISCKGSGYSFTSYWIAWVRQMPGKGLEYMGLIYPGDSDTKYSPSFQGQVTISVDKSVSTAYLQWSSLKPSDSAVYFCARHDVGYCSSSNCAKWPEYFQHWGQGTLVTVSSGGGGSGGGGSGGGGSQSVLTQPPSVSAAPGQKVTISCSGSSSNIGNNYVSWYQQLPGTAPKLLIYGHTNRPAGVPDRFSGSKSGTSASLAISGFRSEDEADYYCAAWDDSLSGWVFGGGTKLTVLGGHGHHHHHH
modifications: left off: large carriers; small tags and cut ends
- cellular uptake by fluorescence microscopy (SKOV-3 cells (Her2^high)): bound to SKOV-3 cells through Her2 but did not internalize in the cells

— patent US20150030593A1, “COMPOSITIONS OF PENETRATION-ENHANCED TARGETING PROTEINS AND METHODS OF USE” (PERMEON BIOLOGICS, INC., priority 2013, published 2015)
